According to patent US8367687B2, “Pyrazole derivatives” (Novartis AG, priority 2007, dated 2013):
Where two headings read alike, the source gives them in different places.

Key:
p-pRb/S780 = p-pRb/S780 ELISA Cellular Assay (CDK4 ELISA assay); format: cell-based; details: cells treated for 24 hrs
Experimental: Biological Activity p-pRb/S780 ELISA Cellular Assay
Maxisorp plates (Nunc 442404) are coated with 50 ul of 1 ug/mL total phospholated Retinoblast Protein (pRb) antibody (4H1 Cell Signaling 9309L) diluted in DPBS (Phosphate Buffered Saline) overnight at 4° C. The next day plates are blocked with Superblock in TBST (Pierce 37535) for one hour to overnight—changing block once during that time. Cells are plated at 50-60% confluency in a 96 well plate (Corning 3585) in 100 uL complete media (media containing fetal bovine serum (Gibco 1600-044), 2 mM L-Glutamine (Gibco 25030), and 1% Penicillin/Streptomycin (Gibco 15140-122) and grown overnight in a humidified chamber at 37° C. and 5% CO2. Compounds (in DMSO) are diluted in media to create a 7 point dilution series of compound with concentrations ranging from 110 uM to 0.027 uM. 10 ul of the diluted compounds are added to the cells, with final concentrations on cells ranging from 10 uM to 0.002 uM. Cells are treated for 24 hrs in a humidified chamber at 37° C. and 5% CO2. Following compound incubation, cells are lysed with 40 uL/well lysis buffer (50 mM Tris-HCL pH 7.5 (Invitrogen 15567-027), 120 mM NaCl (Promega V4221), 1 mM EDTA (Gibco 15575-038), 6 mM EGTA (Fisher 02783-100), 1% Nonidet P40 (Fluka R02771). Plates are placed on Titerplate shaker (Labline model 4625) for 5 minutes at 4° C. to lyse cells. After lysis, 10 ul of cell lysate and 50 ul 1×PBS/10% Superblock (Gibco 10010 and Pierce 37535) is added to each well of the precoated and blocked Maxisorp plate and allowed to bind at room temperature for 2 hours on Oribtron Rotator II (Boekel Industries Model 260250). Plates are then washed 3× with 1×TBST (Teknova T9201) using Biotek platewasher equipped with a Biostack. The final wash is not aspirated. The final wash is removed by flicking off and tapping plate on paper towels. ppRbS780 antibody (Cell Signaling 9307L) is diluted 1:1000 in 1×PBS/10% Superblock (Gibco 10010 and Pierce 37535) and 50 ul is added to each well. Plates are then incubated 1 hour on Oribtron Rotator II (Boekel Industries Model 260250). Plates are then washed as previously described. Goat anti-rabbit HRP (Promega W401B) is diluted 1:2500 1×PBS/10% Superblock (Gibco 10010 and Pierce 37535) and 50 ul is added to each well. Plates are then incubated 30 minutes on Oribtron Rotator II. Plates are then washed as previously described. 50 uL Ultra TMB ELISA (Pierce 34028) is then added to each well. Plates are incubated 5-20 minutes until blue color develops. 50 ul 2M Sulfuric acid (Mallinckrodt 2468-46) is then added to each well to stop the reaction. Absorbance at 450 nm for each plate is read on Spectramax Plus (Molecular Devices).

hCDK1/B = hCDK1/B (Homo sapiens, UniProt P06493); experiment: hCDK1/B; format: biochemical
CDK4 = CDK4 (Homo sapiens, UniProt P11802); experiment: CDK4 HTRF; format: biochemical
CDK2 cyA = CDK2 cyA (Homo sapiens, UniProt P24941); experiment: CDK2 cyA IMAP; format: biochemical
[1] = Table 1, read-out: CDK4 ELISA assay IC50
[2] = Table 1, read-out: CDK2 cyA IMAP
[3] = Table 2, read-out: p_pRb Cap EL/ IC50_ppRbinh
[4] = Table 2, read-out: CDK4 HTRF/ IC50
[5] = Table 2, read-out: CDK2cyA IMAP/ IC50

hCDK1/B, sequence (P06493 whole entry): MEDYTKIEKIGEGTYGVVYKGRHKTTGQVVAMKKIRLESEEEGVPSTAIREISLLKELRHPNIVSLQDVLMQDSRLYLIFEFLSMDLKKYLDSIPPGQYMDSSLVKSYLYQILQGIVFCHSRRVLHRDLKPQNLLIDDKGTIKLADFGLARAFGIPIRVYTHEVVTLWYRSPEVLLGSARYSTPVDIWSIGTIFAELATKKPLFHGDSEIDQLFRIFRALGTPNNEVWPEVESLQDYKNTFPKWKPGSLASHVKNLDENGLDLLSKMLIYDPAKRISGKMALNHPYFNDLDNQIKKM
hCDK1/B, sequence (P14635 whole entry partner): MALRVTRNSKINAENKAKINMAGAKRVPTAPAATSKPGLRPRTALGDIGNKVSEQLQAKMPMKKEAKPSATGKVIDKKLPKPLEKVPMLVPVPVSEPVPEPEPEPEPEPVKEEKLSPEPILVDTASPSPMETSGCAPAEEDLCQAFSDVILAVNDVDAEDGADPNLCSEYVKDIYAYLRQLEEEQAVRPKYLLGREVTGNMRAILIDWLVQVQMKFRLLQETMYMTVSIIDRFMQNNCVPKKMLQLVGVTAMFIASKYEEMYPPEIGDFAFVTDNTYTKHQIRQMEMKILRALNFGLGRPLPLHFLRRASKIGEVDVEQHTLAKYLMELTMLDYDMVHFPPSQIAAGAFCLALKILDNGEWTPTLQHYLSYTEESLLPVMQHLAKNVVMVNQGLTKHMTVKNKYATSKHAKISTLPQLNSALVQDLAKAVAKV
CDK4, sequence (P11802 whole entry): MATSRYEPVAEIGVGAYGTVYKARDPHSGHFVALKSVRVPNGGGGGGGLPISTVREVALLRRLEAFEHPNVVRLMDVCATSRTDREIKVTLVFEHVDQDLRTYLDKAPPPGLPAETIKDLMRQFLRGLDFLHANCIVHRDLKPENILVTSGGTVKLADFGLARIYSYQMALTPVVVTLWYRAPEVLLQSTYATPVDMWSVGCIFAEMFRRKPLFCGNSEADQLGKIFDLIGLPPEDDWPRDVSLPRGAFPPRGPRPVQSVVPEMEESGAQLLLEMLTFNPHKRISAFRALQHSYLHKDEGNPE
CDK4, sequence (P24385 whole entry partner): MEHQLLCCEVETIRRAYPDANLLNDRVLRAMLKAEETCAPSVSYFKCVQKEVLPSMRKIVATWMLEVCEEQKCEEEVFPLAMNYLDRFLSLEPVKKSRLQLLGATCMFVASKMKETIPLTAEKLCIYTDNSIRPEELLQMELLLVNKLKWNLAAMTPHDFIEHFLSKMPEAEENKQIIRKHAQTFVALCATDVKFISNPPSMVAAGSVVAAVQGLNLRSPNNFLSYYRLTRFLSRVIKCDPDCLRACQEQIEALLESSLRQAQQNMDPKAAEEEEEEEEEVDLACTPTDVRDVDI

Row | SMILES | IC50 (p-pRb/S780; [1]) [µM] | IC50 (hCDK1/B; Table 1) [µM] | IC50 (CDK4; Table 1, read-out: CDK4 HTRF) [µM] | IC50 (CDK2 cyA; [2]) [µM] | IC50 (p-pRb/S780; [3]) [µM] | IC50 (hCDK1/B; Table 2) [µM] | IC50 (CDK4; [4]) [µM] | IC50 (CDK2 cyA; [5]) [µM]
1 | CC(C)c1[nH]ncc1-c1ccnc(NC2CCC2)c1 [Example 2] | < 1 | < 0.5 | < 0.5 | < 0.5 | – | – | – | –
2 | Cc1n[nH]cc1-c1ccnc(NCCCN2CCCC2)n1 [Example 128] | – | – | – | – | < 15 | ≥ 15 | < 15 | ≥ 15
3 | Cc1n[nH]cc1-c1ccnc(NCCCO)n1 [Example 121] | – | – | – | – | < 15 | < 15 | < 5 | < 15
4 | c1cc(-c2cn[nH]c2C2CCCC2)cc(NCCN2CCCCC2)n1 [Example 61] | < 15 | ≥ 15 | < 5 | ≥ 15 | – | – | – | –
5 | CC(C)c1n[nH]cc1-c1ccnc(NC2CCNCC2)n1 [Example 141] | – | – | – | – | < 5 | < 0.5 | < 0.05 | < 1
6 | Cc1n[nH]cc1-c1ccnc(NCc2cccc(C(F)(F)F)c2)n1 [Example 89] | – | – | – | – | < 15 | < 10 | < 5 | < 10
7 | Cc1n[nH]cc1-c1ccnc(NCCC#N)n1 [Example 96] | – | – | – | – | < 15 | < 15 | < 5 | < 15
8 | Cc1n[nH]cc1-c1ccnc(NCC2CCCO2)n1 (centres unmarked) [Example 88] | – | – | – | – | < 15 | < 15 | < 15 | ≥ 15
9 | Cc1n[nH]cc1-c1ccnc(NCCN2CCOCC2)n1 [Example 99] | – | – | – | – | < 15 | ≥ 15 | < 10 | ≥ 15
10 | CC(C)c1n[nH]cc1-c1ccnc(NC2CCc3cc(Cl)ccc32)n1 (centres unmarked) [Example 190] | – | – | – | – | < 5 | < 5 | < 0.5 | < 0.5
11 | Cc1n[nH]cc1-c1ccnc(NCCC2CCCN2C)n1 (centres unmarked) [Example 113] | – | – | – | – | < 15 | ≥ 15 | < 10 | ≥ 15
12 | Cc1n[nH]cc1-c1ccnc(NC2CC2)n1 [Example 97] | – | – | – | – | < 15 | < 10 | < 5 | < 10
13 | COCCNc1nccc(-c2c[nH]nc2C)n1 [Example 120] | – | – | – | – | < 15 | ≥ 15 | < 15 | ≥ 15
14 | Cc1n[nH]cc1-c1ccnc(NCCOc2ccccc2)n1 [Example 98] | – | – | – | – | < 15 | < 15 | < 5 | < 15
15 | CC(C)c1[nH]ncc1-c1ccnc(NCCC2CCCN2C)c1 (centres unmarked) [Example 42] | < 15 | ≥ 15 | < 5 | ≥ 15 | – | – | – | –
16 | COc1cc(CNc2nccc(-c3c[nH]nc3C)n2)cc(OC)c1 [Example 133] | – | – | – | – | < 15 | ≥ 15 | < 15 | ≥ 15
17 | Cc1n[nH]cc1-c1ccnc(NCC2CC2)n1 [Example 124] | – | – | – | – | < 15 | < 10 | < 5 | < 10
18 | CC(C)c1n[nH]cc1-c1ccnc(NC2Cc3ccccc3C2)n1 [Example 170] | – | – | – | – | < 5 | < 0.5 | < 0.05 | < 0.5
19 | Cc1ccc(CNc2nccc(-c3c[nH]nc3C)n2)cc1 [Example 117] | – | – | – | – | < 15 | ≥ 15 | < 10 | ≥ 15
20 | Cc1n[nH]cc1-c1ccnc(NC2CCCN(C(=O)OC(C)(C)C)C2)n1 (centres unmarked) [Example 115] | – | – | – | – | < 15 | ≥ 15 | < 10 | ≥ 15
21 | CC(C)c1n[nH]cc1-c1ccnc(N[C@H]2CCCc3ccccc32)n1 [Example 178] | – | – | – | – | < 15 | < 10 | < 5 | ≥ 15
22 | CC(C)c1[nH]ncc1-c1ccnc(NCCCN(C)C)c1 [Example 16] | < 15 | ≥ 15 | < 5 | ≥ 15 | – | – | – | –

Row | SMILES | IC50 (p-pRb/S780; [1]) [µM] | IC50 (hCDK1/B; Table 1) [µM] | IC50 (CDK4; Table 1, read-out: CDK4 HTRF) [µM] | IC50 (CDK2 cyA; [2]) [µM] | IC50 (p-pRb/S780; [3]) [µM] | IC50 (hCDK1/B; Table 2) [µM] | IC50 (CDK4; [4]) [µM] | IC50 (CDK2 cyA; [5]) [µM]
23 | CC(C)CNc1nccc(-c2c[nH]nc2C(C)C)n1 [Example 163] | – | – | – | – | < 5 | < 0.5 | < 0.1 | < 0.1
24 | CCC(Nc1nccc(-c2c[nH]nc2C(C)C)n1)c1ccccc1 (centres unmarked) [Example 151] | – | – | – | – | < 10 | < 1 | < 0.5 | < 5
25 | Cc1cc(C)n(CCNc2nccc(-c3c[nH]nc3C(C)C)n2)n1 [Example 149] | – | – | – | – | < 15 | < 10 | < 5 | < 15
26 | CC(C)c1n[nH]cc1-c1ccnc(NC2CCCc3ccccc32)n1 (centres unmarked) [Example 169] | – | – | – | – | < 5 | < 5 | < 0.05 | < 1
27 | COc1cccc(OC)c1CNc1nccc(-c2c[nH]nc2C(C)C)n1 [Example 156] | – | – | – | – | < 15 | ≥ 15 | < 15 | ≥ 15
28 | CC(C)c1[nH]ncc1-c1ccnc(NCc2ccc3c(c2)OCO3)c1 [Example 35] | < 15 | < 5 | < 5 | < 5 | – | – | – | –
29 | CC(C)c1n[nH]c(Br)c1-c1ccnc(NC2CCN(C)CC2)n1 [Example 179] | – | – | – | – | < 1 | < 5 | < 0.1 | < 5
30 | CC(C)c1[nH]ncc1-c1ccnc(NCCCNC2CCCCC2)c1 [Example 51] | < 15 | ≥ 15 | < 5 | ≥ 15 | – | – | – | –
31 | CC(C)c1n[nH]cc1-c1ccnc(NC2CCN(Cc3ccccc3)CC2)n1 [Example 85] | – | – | – | – | < 10 | < 0.5 | < 0.05 | < 1
32 | c1cc(-c2cn[nH]c2C2CCCC2)cc(NCCCN2CCOCC2)n1 [Example 65] | < 15 | ≥ 15 | < 5 | ≥ 15 | – | – | – | –
33 | Cc1n[nH]cc1-c1ccnc(NCCCN2CCCC2=O)n1 [Example 131] | – | – | – | – | < 15 | ≥ 15 | < 15 | ≥ 15
34 | Cc1ccc(CNc2cc(-c3cn[nH]c3C3CCCC3)ccn2)cc1 [Example 64] | < 5 | < 5 | < 10 | < 5 | – | – | – | –
35 | Cc1n[nH]cc1-c1ccnc(NCCc2ccccc2)n1 [Example 91] | – | – | – | – | < 15 | < 10 | < 1 | < 10
36 | Cc1n[nH]cc1-c1ccnc(NCC2CCCCCC2)n1 [Example 105] | – | – | – | – | < 15 | < 10 | < 5 | < 15
37 | CC(C)c1n[nH]cc1-c1ccnc(N[C@@H]2CCCc3ccccc32)n1 [Example 177] | – | – | – | – | < 1 | < 5 | < 0.05 | < 0.5
38 | CC(C)c1[nH]ncc1-c1ccnc(NCCN2CCCCC2)c1 [Example 31] | < 15 | ≥ 15 | < 5 | ≥ 15 | – | – | – | –
39 | COCCCNc1nccc(-c2c[nH]nc2C)n1 [Example 108] | – | – | – | – | < 15 | < 15 | < 5 | ≥ 15
40 | CC(C)c1[nH]ncc1-c1ccnc(NCCN2CCOCC2)c1 [Example 32] | < 15 | ≥ 15 | < 5 | < 10 | – | – | – | –
41 | CCN(CC)CCNc1nccc(-c2c[nH]nc2C(C)C)n1 [Example 144] | – | – | – | – | < 15 | ≥ 15 | < 5 | ≥ 15
42 | COc1ccccc1CNc1nccc(-c2c[nH]nc2C)n1 [Example 130] | – | – | – | – | < 15 | < 10 | < 5 | < 15
43 | CC(C)c1[nH]ncc1-c1ccnc(NCc2cccc(C(F)(F)F)c2)c1 [Example 25] | < 0.1 | < 5 | < 5 | < 5 | – | – | – | –
44 | CC(C)c1n[nH]cc1-c1ccnc(NC2CCCCC2)n1 [Example 166] | – | – | – | – | < 1 | < 0.05 | < 0.05 | < 0.05
